Where no end group is shown, it is not given here.
Columns and labels:
Assay type in all cases: binding
Ca^2+/CaM [1] = target: T1, Ca^2+/CaM (Homo sapiens, UniProt P0DP23); assay: NMR titration (2D 1H-15N HSQC) of 15N-labeled Ca^2+/CaM with FasDD peptides; conditions: 1H-15N HSQC, 15N-Ca^2+/CaM 100–150 μM, 35°C, pH 7.0
T1 construct: made in house
Protocol: (§1) NMR data were collected at 35°C on a Bruker Avance II (700 MHz ^1H) spectrometer equipped with a cryogenic triple-resonance probe, processed with NMRPIPE [35] and analyzed with NMRVIEW [36] or CCPN Analysis. […] For signal assignments of the complexes, ^13C-, ^15N-, or ^13C-/^15N-labeled Ca^2+/CaM at ~400–500 μM was mixed with unlabeled Fas-Pep1 (in 100% DMSO-d6) or Fas-Pep2 at 1.5:1 peptide:Ca^2+/CaM. […] The backbone atom resonances of Ca^2+/CaM complexes with Fas-Pep1 and Fas-Pep2 were assigned using HNCA, HN(CO)CA, HNCACB, HNCO, HN(CO)CACB and ^15N-edited NOESY-HSQC and TOCSY-HSQC experiments. These experiments have been also collected on ^15N-, or ^13C-/^15N-labeled Fas-Pep2 in complex with unlabeled Ca^2+/CaM to confirm the α-helical character of Fas-Pep2 when bound to Ca^2+/CaM. The chemical shifts of Ca^2+/CaM-bound Fas-Pep2 were used to predict its order parameters and secondary structure content in TALOS+.[38] Combined ^1H-^15N chemical shift changes were calculated as ΔδHN = [(ΔδH)^2+(ΔδN/5)^2]^1/2, where ΔδH and ΔδN are the ^1H and ^15N chemical shift changes, respectively. Kd values were calculated by non-linear least-square fitting algorithm in Origin software (OriginLab, Northampton, MA) using the equation: ΔδHN=ΔδHN^max((Kd+L0+P0)−((Kd+L0+P0)^2−4*P0*L0)^0.5)/(2*P0) where ΔδHN^max is the chemical shift change between complex and free protein, L0 total concentration of ligand, and P0 total concentration of protein.
To gain insights into the molecular elements of Ca^2+/CaM–FasDD interaction and to identify the interaction interface, we have utilized NMR chemical shift perturbation (CSP) as detected in ^1H-^15N heteronuclear single quantum coherence (HSQC) spectra. These experiments not only allow for identification of residues involved in binding but can also provide information on the induced conformational changes within proteins. 2D ^1H-^15N HSQC data obtained for a uniformly ^15N-labeled Ca^2+/CaM upon titration with unlabeled Fas-Pep1 are shown in Fig 5. Addition of substoichiometric amounts of Fas-Pep1 (0.5:1 peptide:Ca^2+/CaM) led to a decrease in intensity for a significant number of ^1H-^15N resonances accompanied by appearance of several new signals, consistent with a slow exchange on the NMR scale between the free and bound forms of Ca^2+/CaM. A steady decrease in intensity for the original ^1H-^15N signals and increase in intensity of the new signals was clearly observed with further addition of Fas-Pep1. Spectral changes ceased upon completion of peptide titration at 1.5:1 Fas-Pep1:Ca^2+/CaM ratio when only the new set of signals was present (Fig 5). […]
Only residues 214–227 have been detected in the x-ray structure of Ca^2+/CaM bound to FasDD(214–238); no electron density has been detected for residues 228–238.[40] […]

Ca^2+/CaM-C = target: T2, Ca^2+/CaM-C (Homo sapiens, UniProt P0DP23); assay: NMR titration (2D 1H-15N HSQC) of isolated C-terminal lobe; conditions: 1H-15N HSQC titration
T2 construct: ^15N-labled samples of the isolated Ca^2+/CaM-N and Ca^2+/CaM-C domains; made in house
Protocol: as §1, with “The chemical shifts of Ca^2+/CaM-bound Fas-Pep2 were used to predict its order parameters and secondary structure content in TALOS+.[38]” left out, “protein. […]” for “protein.”

Ca^2+/CaM [2] = target: T1, Ca^2+/CaM; assay: Gel filtration assay of Ca^2+/CaM-peptide complexes; conditions: HiLoad Superdex 75 (10/300 GL), 50 mM Tris (pH 7.0), 100 mM NaCl, 5 mM CaCl2
Protocol: The mobility of Ca^2+/CaM complexes with Fas-Pep1 and Fas-Pep2 was analyzed by a gel filtration assay. […] Protein fractions were analyzed by SDS-PAGE. A low molecular weight calibration kit (GE Healthcare) was used to determine the approximate molecular weight of complexes.
Fas-Pep2 has been expressed and purified as a fusion protein with SUMO (see Materials and Methods). Because of some technical difficulties during purification of a recombinant peptide, a synthetic Fas-Pep1 was used in this study. The solution properties of Fas-Pep1 and Fas-Pep2 and their complexes with Ca^2+/CaM were initially analyzed with size exclusion chromatography assay. Samples were run on a size exclusion column (Superdex 75) under identical buffer conditions. Sample concentrations were at ~50–100 μM. […] Ca^2+/CaM complexes with Fas-Pep1 and Fas-Pep2 prepared at 1:1 stoichiometry eluted at 11.3 and 11.2 mL, respectively (Fig 3A). […] The formation of complexes was confirmed by SDS-PAGE (Fig 3B). […] As we and others have shown previously, Ca^2+/CaM elutes at a smaller than expected volume due to its elongated dumbbell shape.[32, 42, 43]

NMR exchange regime with Ca^2+/CaM (Ca^2+/CaM [1]): slow exchange
CSPs on Ca^2+/CaM-C (Ca^2+/CaM-C): significant CSPs for numerous residues
elution volume, free (Ca^2+/CaM [2]; ~50–100 μM): 15.2 mL
elution volume of complex with Ca^2+/CaM (Ca^2+/CaM [2]; prepared at 1:1 stoichiometry): 11.2 mL
Sequence: VQDTAEQKVQLLRNWHQLHGKKEAYDTLIKDLKKANLC [Fas-Pep2]
